We go through three compounds from patent US6777426B2, “Imidazole and imidazoline derivatives and uses thereof” (Synaptic Pharmaceutical Corporation, priority 1997, dated 2004).

Series [1] deals with T1, human α2a adrenergic receptor (Homo sapiens, UniProt P08913).
T1 construct: expressed in transfected cells; host or cells: LM(tk−) cells (L-α2A, ATCC CRL-11180), vector pCEXV-3
T1 sequence (P08913 1-465): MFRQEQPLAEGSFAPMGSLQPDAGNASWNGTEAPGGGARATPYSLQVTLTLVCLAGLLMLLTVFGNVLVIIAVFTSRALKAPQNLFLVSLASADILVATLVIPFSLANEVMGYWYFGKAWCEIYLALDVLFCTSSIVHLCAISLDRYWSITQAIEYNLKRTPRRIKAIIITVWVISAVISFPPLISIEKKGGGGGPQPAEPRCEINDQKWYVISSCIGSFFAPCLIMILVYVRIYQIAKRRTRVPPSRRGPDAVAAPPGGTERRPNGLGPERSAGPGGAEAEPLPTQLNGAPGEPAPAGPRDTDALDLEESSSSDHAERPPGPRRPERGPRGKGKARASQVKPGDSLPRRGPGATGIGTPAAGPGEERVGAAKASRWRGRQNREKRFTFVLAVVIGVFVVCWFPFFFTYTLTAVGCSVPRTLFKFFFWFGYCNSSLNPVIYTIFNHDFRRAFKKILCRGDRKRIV
Kind of series: α2 agonist activity: inhibition of forskolin-stimulated cAMP synthesis, α2a cells. Format: cell-based. The protocol: (§1) Binding and functional assays were performed using stably transfected cells expressing human α adrenergic receptors. Equilibrium competition binding assays were performed with membrane preparations from cultured LM(tk−) cells stably transfected with the cloned human adrenoceptor subtypes except for a21, which was expressed In Y-1 cells, using [^3H]prazosin for α1 receptors and [^3H]rauwolscine for […].
(§2) These cell lines were prepared by transfecting cloned cDNA or cloned genomic DNA or constructs containing both genomic DNA and cDNA encoding the human a adrenergic receptors as described below.
(§3) The agonist activity (expressed as pEC50) was measured as a function of the ability to inhibit the forskolin-stimulated synthesis of cyclic adenosine monophosphate (cAMP). The stably transfected cells were incubated in Ham's F10 with 5 mM theophylline, 10 mM HEPES, 17 mM pargyline, and/or appropriate concentrations of forskolin for 20 min. at 37° C. in 5% CO2. The tested compounds were then added to a final concentration of 0.001 nM to 1 mM and incubated for an additional 15 min. at 37° C. in 5% CO2. The medium was aspirated and the reaction was stopped by the addition of 100 mM HCl. […] The plates were stored at 4° C. for 15 min. and assayed to determine the linear concentration of cAMP. The appropriate dilution was interpolated from the standard curve of cold cAMP. The assessment of cAMP formation was determined by radioimmunoassay (cAMP radioimmunoassay kit; Advanced magnetics, Cambridge, Mass.). Radioactivity was quantified using a Packard COBRA Auto Gamma counter equipped with data reduction software.

Series [2] addresses T2, human α2b adrenergic receptor (Homo sapiens, UniProt P18089).
T2 construct: expressed in transfected cells; host or cells: stably transfected cells, vector pcEXV-3; deposited line L-NGC-α2B (ATCC CRL-10275)
T2 sequence (P18089 1-450): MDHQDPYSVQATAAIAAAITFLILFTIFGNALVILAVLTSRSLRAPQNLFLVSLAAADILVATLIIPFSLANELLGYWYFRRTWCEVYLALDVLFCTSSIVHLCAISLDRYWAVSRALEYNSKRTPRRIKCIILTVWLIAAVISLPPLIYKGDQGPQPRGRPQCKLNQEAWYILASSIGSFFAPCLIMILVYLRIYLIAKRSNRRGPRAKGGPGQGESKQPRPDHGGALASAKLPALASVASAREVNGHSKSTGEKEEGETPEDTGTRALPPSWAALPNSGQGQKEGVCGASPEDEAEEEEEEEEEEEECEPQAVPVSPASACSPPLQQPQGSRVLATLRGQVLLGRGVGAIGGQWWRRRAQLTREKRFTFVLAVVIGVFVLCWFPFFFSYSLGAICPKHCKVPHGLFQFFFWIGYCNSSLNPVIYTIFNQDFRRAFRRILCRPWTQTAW
Kind of series: Equilibrium competition binding, [3H]rauwolscine, cloned human α2b. The following applies: cloned human α2b, membrane preparations, [3H]rauwolscine; read-out: α2b pKi (converted). The method, then: as §1, §2
Stable cell lines were selected as described above.
(§4) The stable cell lines described above were scraped from culture flasks into 5 mL of 5 mM Tris-HCl, […], pH 7.5, and lysed by sonication. The cell lysates were centrifuged at 1,000 rpm for 5 min. at 4° C., and the supernatant was centrifuged at 30,000×g for 20 min. at 4° C. The pellet was suspended in 50 mM Tris-HCl, 1 mM MgCl2, and 0.1% ascorbic acid at pH 7.5. Binding of the α2 antagonist [^3H]rauwolscine (0.5 nM) or the α1 antagonist [^3H]prazosin (0.5 nM) to membrane preparations of LM(tk−) cells was done in a final volume of 0.25 mL and incubated at 37° C. for 20 min. Nonspecific binding was determined in the presence of […]. The reaction was stopped by filtration through GF/B filters using a cell harvester.

In series [3] the target is T1, human α2a adrenergic receptor. Kind of series: Equilibrium competition binding, [3H]rauwolscine, cloned human α2a. To be noted: cloned human α2a, membrane preparations, [3H]rauwolscine; read-out: α2a pKi (converted). The method, then: as §1, §2
The insert housing this coding region was a 2.5 kb Kpnl/HindIII human placenta genomic fragment which was end-blunted by either T4 polymerase or Klenow fragment of DNA polymerase. Stable cell lines were obtained by to-transfection with the plasmid pGCcos3neo (plasmid containing the α2a receptor gene) and the plasmid pGCcos3neo (plasmid containing the aminoglycoside transferase gene) into LM(tk−), CHO, and NIH3T3 cells, using calcium phosphate technique. The cells were grown in a controlled environment (37° C., 5% CO2) as monolayers in Dulbecco's modified Eagle's Medium (GIBCO, Grand Island, N.Y.) containing 25 mM glucose and supplemented with 10% bovine calf serum, 100 units/mL penicillin g, and […] streptomycin sulfate.
as §4

For series [4], the target named is T2, human α2b adrenergic receptor. Kind of series: α2 agonist activity: inhibition of forskolin-stimulated cAMP synthesis, α2b cells. The class given is cell-based. To be noted: inhibition of forskolin-stimulated cAMP, cloned human α2b; for EC50: read-out: α2b pEC50 (converted). The protocol: as §1, §2, §3
For series [5], the target named is T3, human α2c adrenergic receptor (Homo sapiens, UniProt P18825).
T3 construct: The entire coding region of α2c (1383 bp), including 2 bp of 5′ UT and 400 bp of 3′ UT; expressed in transfected cells; host or cells: LM(tk−) cells (L-α2c, ATCC CRL-11181), vector pCEXV-3
T3 sequence (P18825 1-462): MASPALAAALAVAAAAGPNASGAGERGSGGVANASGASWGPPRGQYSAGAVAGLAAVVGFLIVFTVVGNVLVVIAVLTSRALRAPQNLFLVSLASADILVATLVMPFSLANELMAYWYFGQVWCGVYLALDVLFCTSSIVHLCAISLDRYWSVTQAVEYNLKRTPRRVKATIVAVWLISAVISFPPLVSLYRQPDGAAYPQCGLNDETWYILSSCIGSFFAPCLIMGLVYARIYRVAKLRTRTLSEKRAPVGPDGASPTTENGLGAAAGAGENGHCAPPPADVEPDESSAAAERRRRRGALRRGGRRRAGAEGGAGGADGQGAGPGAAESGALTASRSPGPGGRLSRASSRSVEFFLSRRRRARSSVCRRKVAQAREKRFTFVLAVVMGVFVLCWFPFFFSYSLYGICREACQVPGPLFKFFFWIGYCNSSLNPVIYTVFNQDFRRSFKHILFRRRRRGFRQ
Kind of series: α2 agonist activity: inhibition of forskolin-stimulated cAMP synthesis, α2c cells. The following applies: inhibition of forskolin-stimulated cAMP, cloned human α2c; for EC50: read-out: α2c pEC50 (converted). Format: cell-based. The protocol: as §1, §2, §3

The target of series [6] is T3, human α2c adrenergic receptor. Kind of series: Equilibrium competition binding, [3H]rauwolscine, cloned human α2c. The following applies: cloned human α2c, membrane preparations, [3H]rauwolscine; read-out: α2c pKi (converted). The protocol: as §1, §2
The insert housing this coding region was a 1.8 kb Ncol/EcoR1 human spleen genomic fragment which was end-blunted by either T4 polymerase or Klenow fragment of DNA polymerase. Stable cell lines were selected as described above.
as §4

The mark [7] stands for this setting: inhibition of forskolin-stimulated cAMP, cloned human α2a.

Counter-ions that a name gives are not always drawn. Like-named read-outs stand apart in the source and are kept apart here.

As for `CC(c1c[nH]cn1)c1cc(-c2ccccc2)nc2ccccc12` (stereo not shown) [Example 36, 4-[1-(1H-Imidazol-4-yl)-ethyl]-2-phenyl-quinoline dihydrochloride], the EC50 in series [1] (inhibition of forskolin-stimulated cAMP, cloned human α2a, read-out: α2a pEC50 (converted)) was 10 µM; in series [4], 2.82 µM; in series [5], 0.00724 µM. Moreover, the Ki in series [2] is 0.0407 µM; in series [3], 0.00269 µM; in series [6], 0.0162 µM.
Consider `c1cc2c(cc1NC1=NCCN1)CCC2` [Example 1, 2-(5-Indanylamino)-2-imidazoline], for which the melting point (commonly the temperature, or range, at which the solid turns liquid) was in the range of 41 to 42 °C. This compound showed an EC50 in series [1] of 0.0148 µM. Also, the “α2a IA (Intrinsic Activity)” value in series [1] (setting [7]) is recorded as “(0.48)”. In addition, in series [2], the Ki was 0.00288 µM. The Ki in series [3] is 0.00115 µM. Also, in series [4], the “α2b IA (Intrinsic Activity)” value is “(0.53)” and the EC50 was 0.0363 µM. Also, in series [5], the “α2c IA (Intrinsic Activity)” value is given as “(1.00)” and the EC50 is 0.0115 µM. The Ki in series [6] is 0.0138 µM.
Turning to `Cc1nc2c(c(C)c1NC1=NCCN1)CCC2` [Example 30, 2-(5,6-Cyclopenteno-2,4-dimethyl-pyrid-3-yl)amino-2-imidazoline], the EC50 in series [1] is 0.00295 µM; in series [4] it was 0.148 µM; in series [5], 0.00631 µM. Moreover, the “α2a IA (Intrinsic Activity)” value in series [1] (setting [7]) is given as “(1.00)”. The Ki in series [2] is 0.0363 µM; in series [3] it was 0.0178 µM; in series [6], 0.309 µM. For the same compound, the “α2b IA (Intrinsic Activity)” value in series [4] is reported as “(0.43)”. Moreover, the “α2c IA (Intrinsic Activity)” value in series [5] was “(1.00)”.
